Here are results for 4 molecules from patent US20250144088A1, “INHALABLE FORMULATION FOR USE IN THE TREATMENT OF BACTERIAL LUNG INFECTIONS” (priority 2022, published 2025).

Read-outs that look alike come from different tables or passages of the source.

The test system of one series is J774 cells. In words: High content analysis of drug-induced phospholipidosis (DIPL) and cytotoxicity in macrophage-like cells. As to conditions: mouse, 48 h. The class given is cell-based. The text has this:
FIG. 1: A macrophage-like cell line (J774 cells) were used to screen whether three different nanocarrier formulations differing in their lipid compositions (1: DOPC/Chol, 2: DMPC/DMPG or 3: pegylated DOPC/Chol) i) are cytotoxic to this cell type and protect the cells from BDQ-induced DIPL. A heat map was used to depict the number of cells with DIPL-induced abnormalities (first two left-hand columns) and cytotoxicity markers (columns on the right). Black fields indicate that <10% of the cells in the treatment groups were abnormal, whereas grey-to-white colored fields denote an increasing proportion of cells with abnormalities. The heatmap at the top depicts the positive control group for DIPL, which consisted of four known CADs (amiodarone, amytryptiline, azithromycin, and BDQ) administered to the cells in solution (no formulation). […] The numbers on the left-hand side of each heatmap denote the CAD dose (μM) and the total lipid concentration (μg/mL) added to each well. The values depicted the mean % abnormal cells from six replicate formulations tested in four different cell passage numbers.
High content analysis was initially used as a rapid screening tool to evaluate interactions between lipid-based nanocarrier (TargoSphere©) formulations applied as liquid dispersions and macrophage cells. […] Two of the formulations (DOPC/Chol and DMPG/DMPC) contained Fuc-C4-Chol as a C-type lectin receptor targeting ligand (+CLR). Four concentrations ranging from 15-700 μg/mL (total solid content) were tested. After an incubation time of 48 h three assays with different fluorescence markers were performed. […]
For high content analysis, images were documented using the Cytation™ 5 Cell Imaging Multi-Mode Reader (BioTek, Bad Friedrichshall, Germany) with a 40× objective in standard 2D imaging mode. For each well 6 pictures were analysed using the Gen5 software (BioTek, Bad Friedrichshall, Germany). […] For both dyes the fluorescence intensity values were measured. […] Area and size of the vacuoles were identified and measured based on negative staining. […]

Series [1] is described as follows: In vivo pharmacokinetics, current example (i.v., i.n., p.o.), healthy Balb-c mice. As for the experimental part:
Values represent the mean of n=6 animals per time point.
After 0.5, 3, 24, 48, 72 and 96 hours, the animals were sacrificed and samples were taken from the blood plasma, lung tissues, lung epithelial fluid and cellular fraction of the lung epithelial fluid. […]

The conditions of series [2]: mouse, in vivo, po, 30 mg/kg; cited from earlier work.
The conditions of series [3]: p.o. 25 mg/kg, HP-β-CD solution, Irwin, 2016, male Balb/c mice, cited from earlier work.
The test system of series [4] is Mycobacterium tuberculosis strains. The following applies: cited from earlier work.
[5] abbreviates: Balb-c, mouse, in vivo, po, 25 mg/kg.

Take `COc1nc2ccc(Br)cc2cc1[C@@H](c1ccccc1)[C@@](O)(CCN(C)C)c1cccc2ccccc12` [BDQ, bedaquiline]: in the series on J774 cells, the “cells exhibiting abnormal phospholipid accumulation” value is on record as ~100%. Besides, the tmax is 0.5 h in series [1] (BDQ in plasma, p.o. 25 mg/kg, drug suspension, current example); 24 h in series [1] (setting [5]); 24 h in series [2]; 8 h in series [3] (BDQ in lung tissue); 0.5 h in series [3] (BDQ in plasma). Besides, the Kp in series [1] (Balb-c, mouse, in vivo) was determined as 62; in series [1] (Balb-c, mouse, in vivo, iv), 15; in series [1] (Balb-c, mouse, in vivo, po), 11. In series [1] (Balb-c, mouse, in vivo), the “increase in lung exposure after intrapulmonary administration” value is listed as 3 fold. In addition, the Tmax in series [1] (setting [5]) was determined as 3 h. Moreover, the Cmax in series [3] (BDQ in plasma) is 2.9 µg/mL.

With `CNCCC(O)(c1cccc2ccccc12)C(c1ccccc1)c1cc2cc(Br)ccc2nc1OC` (stereo not drawn) [M2, N-desmethyl-BDQ], the “attenuated activity against Mycobacterium tuberculosis strains compared to BDQ” value in series [4] is given as 3- to 5 fold.

Consider `CCCCc1oc2ccccc2c1C(=O)c1cc(I)c(OCCN(CC)CC)c(I)c1` [amiodarone], for which the “cells exhibiting abnormal phospholipid accumulation” value in the series on J774 cells is recorded as ~100%.

Turning to `CC[C@H]1OC(=O)[C@H](C)[C@@H](O[C@H]2C[C@@](C)(OC)[C@@H](O)[C@H](C)O2)[C@H](C)[C@@H](O[C@@H]2O[C@H](C)C[C@H](N(C)C)[C@H]2O)[C@](C)(O)C[C@@H](C)CN(C)[C@H](C)[C@@H](O)[C@]1(C)O` [azithromycin], the “cells exhibiting abnormal phospholipid accumulation” value with J774 cells is on record as ~100%.

As usually defined, the Tmax is the time at which the peak concentration occurs. One may read the Cmax as the peak of the concentration-time curve.
